Data as given in patent US20260174875A1 (Novo Nordisk A/S, priority 2023, published 2026).

Assay: Chemical stability assessment in formulation (UPLC-UV-MS purity loss at 37° C.)
Assay type: physicochemical
Conditions: 8 mM phosphate buffer pH 7.4, 1 mg/mL, 2 weeks
Procedure: The assay was performed to investigate the extend of chemical degradation in vitro over time upon incubation at 37° C. for a period of 2 weeks.
Peptide solutions were prepared by dissolving freeze-dried powder in 8 mM phosphate buffer pH 7.4 to a target of 1 mg/mL. The pH of peptide solutions was adjusted to 7.4 with 0.02 M HCl or 0.02 M NaOH. Samples were filled in Agilent HPLC vials with fixed insert. Vials were capped to prevent evaporation. The HPLC vials were incubated at 37° C. and samples were withdrawn at different time points over a period of 2 weeks, flash frozen at −80° C., and stored at −20° C. until analysis.
A flow-rate of 100 μL/min was delivered with a Binary solvent manager pump having 0.1% formic acid in water as solvent A and 0.1% formic acid in acetonitrile as solvent B. Gradient elution was carried out using 20% B from 0 to 2 min followed by 20 to 50% B from 2 to 20 min in a total run time of 30 min.

CC[C@H](C)[C@H](NC(=O)[C@H](CCC(=O)O)NC(=O)[C@H](CCC(=O)O)NC(=O)[C@H](CC(C)C)NC(=O)[C@H](CC(C)C)NC(=O)[C@H](CCCCNC(=O)COCCOCCNC(=O)COCCOCCNC(=O)CC[C@H](NC(=O)CCCCCCCCCCCCCCCCCCC(=O)O)C(=O)O)NC(=O)[C@H](CO)NC(=O)[C@H](Cc1ccc(O)cc1)NC(=O)[C@H](CC(=O)O)NC(=O)[C@H](CO)NC(=O)[C@@H](NC(=O)[C@H](Cc1ccccc1)NC(=O)[C@@H](NC(=O)CNC(=O)[C@H](CCC(=O)O)NC(=O)C(C)(C)NC(=O)[C@@H](N)Cc1ccc(O)cc1)[C@@H](C)O)[C@@H](C)O)C(=O)N[C@@H](C)C(=O)N[C@@H](C)C(=O)N[C@@H](CCCNC(=N)N)C(=O)N[C@@H](CCC(=O)O)C(=O)N[C@@H](Cc1ccccc1)C(=O)N[C@H](C(=O)N[C@@H](CCC(=O)O)C(=O)N[C@@H](Cc1c[nH]c2ccccc12)C(=O)N[C@@H](CC(C)C)C(=O)N[C@@H](CC(C)C)C(=O)N[C@@H](C)C(=O)NCC(=O)NCC(=O)N1CCC[C@H]1C(=O)N[C@@H](CO)C(=O)N[C@@H](CO)C(=O)NCC(=O)N[C@@H](C)C(=O)NCC(=O)N[C@@H](C)C(=O)N[C@@H](CO)C(=O)N[C@@H](CCC(=O)O)C(=O)N[C@@H](CC(C)C)C(=O)N[C@@H](CO)C(=O)N[C@H](C(=O)N[C@@H](C)C(=O)N[C@@H](CCC(N)=O)C(=O)N[C@@H](CC(C)C)C(=O)NCC(=O)N[C@@H](CCCNC(=N)N)C(=O)N[C@@H](CC(C)C)C(=O)N[C@@H](CO)C(=O)N[C@@H](C)C(=O)N[C@@H](CCC(=O)O)C(=O)N[C@@H](CC(C)C)C(=O)N[C@@H](Cc1c[nH]cn1)C(=O)N[C@@H](CCC(N)=O)C(=O)N[C@@H](CC(C)C)C(=O)N[C@@H](C)C(=O)N[C@H](C(=O)N[C@@H](CCC(=O)O)C(=O)N1CCC[C@H]1C(=O)N[C@@H](CCCNC(=N)N)C(=O)N[C@H](C(=O)N[C@@H](CCC(=O)O)C(=O)N[C@H](C(=O)NCC(=O)N[C@@H](CO)C(=O)NCC(=O)N[C@@H](CO)C(=O)N1CCC[C@H]1C(N)=O)[C@@H](C)O)[C@@H](C)O)[C@@H](C)O)[C@@H](C)O)[C@@H](C)CC [Compound 186]
Purity loss per week at 37° C.: 1.0%
